Assays:
[1] = biological target: T1, Adrenergic receptor alpha-1 (Homo sapiens, UniProt P35348+P25100+P35368); experiment: Binding affinity to human adrenergic receptor alpha1; assay type: protein assay
T1 sequence (P35348 whole entry): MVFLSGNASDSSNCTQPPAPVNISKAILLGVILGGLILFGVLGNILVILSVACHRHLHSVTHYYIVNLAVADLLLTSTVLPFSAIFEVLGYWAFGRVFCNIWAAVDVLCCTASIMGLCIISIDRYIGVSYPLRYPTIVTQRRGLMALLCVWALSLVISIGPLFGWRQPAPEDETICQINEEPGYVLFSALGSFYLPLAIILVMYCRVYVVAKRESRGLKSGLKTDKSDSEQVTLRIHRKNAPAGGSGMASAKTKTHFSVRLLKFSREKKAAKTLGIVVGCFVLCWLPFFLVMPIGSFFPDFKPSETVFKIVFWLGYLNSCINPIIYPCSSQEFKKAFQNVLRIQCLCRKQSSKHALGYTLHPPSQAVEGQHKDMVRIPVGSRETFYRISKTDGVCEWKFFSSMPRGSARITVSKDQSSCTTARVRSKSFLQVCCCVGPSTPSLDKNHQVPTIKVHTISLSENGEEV
T1 sequence (P25100 whole entry): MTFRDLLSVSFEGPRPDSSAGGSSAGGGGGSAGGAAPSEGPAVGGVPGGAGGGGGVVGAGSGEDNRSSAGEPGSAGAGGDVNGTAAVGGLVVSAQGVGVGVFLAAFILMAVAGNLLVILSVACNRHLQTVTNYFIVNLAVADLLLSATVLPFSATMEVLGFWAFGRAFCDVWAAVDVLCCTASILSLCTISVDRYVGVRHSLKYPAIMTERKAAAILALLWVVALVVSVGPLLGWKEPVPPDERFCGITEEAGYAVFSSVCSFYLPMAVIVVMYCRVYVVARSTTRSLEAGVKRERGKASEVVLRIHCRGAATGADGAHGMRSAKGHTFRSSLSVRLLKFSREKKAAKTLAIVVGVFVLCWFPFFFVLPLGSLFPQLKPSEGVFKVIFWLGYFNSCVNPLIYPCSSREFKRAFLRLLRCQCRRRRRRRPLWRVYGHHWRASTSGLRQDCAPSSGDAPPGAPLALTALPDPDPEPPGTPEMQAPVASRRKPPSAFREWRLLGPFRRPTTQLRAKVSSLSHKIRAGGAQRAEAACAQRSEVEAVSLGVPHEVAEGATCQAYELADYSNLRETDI
T1 sequence (P35368 whole entry): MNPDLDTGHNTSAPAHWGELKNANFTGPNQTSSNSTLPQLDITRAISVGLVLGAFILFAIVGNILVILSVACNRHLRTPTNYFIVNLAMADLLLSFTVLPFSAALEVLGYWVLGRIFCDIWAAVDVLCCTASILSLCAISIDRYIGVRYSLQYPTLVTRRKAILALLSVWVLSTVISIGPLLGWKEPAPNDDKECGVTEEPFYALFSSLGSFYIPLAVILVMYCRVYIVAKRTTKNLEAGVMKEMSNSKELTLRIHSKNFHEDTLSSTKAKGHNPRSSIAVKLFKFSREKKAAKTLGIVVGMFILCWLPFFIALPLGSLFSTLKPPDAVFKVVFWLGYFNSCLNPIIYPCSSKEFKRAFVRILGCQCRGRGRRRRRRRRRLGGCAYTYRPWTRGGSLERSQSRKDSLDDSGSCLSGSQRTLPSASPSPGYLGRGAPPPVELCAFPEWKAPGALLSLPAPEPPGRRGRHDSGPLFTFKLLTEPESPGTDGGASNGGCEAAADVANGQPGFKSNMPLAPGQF

[2] = biological target: T2, 5-hydroxytryptamine receptor 1A (Rattus norvegicus, UniProt P19327); experiment: Displacement of [3H]-[…] from Wistar rat frontal region 5-HT1AR incubated for 30 mins; assay type: tissue-based, Frontal lobe
T2 sequence (P19327 whole entry): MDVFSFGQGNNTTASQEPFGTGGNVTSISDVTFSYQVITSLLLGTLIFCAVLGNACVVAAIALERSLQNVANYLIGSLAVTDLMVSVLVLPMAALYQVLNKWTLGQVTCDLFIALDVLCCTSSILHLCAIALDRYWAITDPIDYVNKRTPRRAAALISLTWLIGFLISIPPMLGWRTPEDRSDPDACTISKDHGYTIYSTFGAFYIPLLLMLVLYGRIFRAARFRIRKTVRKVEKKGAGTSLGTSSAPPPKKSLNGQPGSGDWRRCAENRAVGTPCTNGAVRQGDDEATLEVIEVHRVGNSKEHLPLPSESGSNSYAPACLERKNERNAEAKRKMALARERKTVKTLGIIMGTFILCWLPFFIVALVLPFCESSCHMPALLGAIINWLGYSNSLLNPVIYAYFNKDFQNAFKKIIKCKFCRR

[3] = biological target: D(1A) dopamine receptor (Homo sapiens, UniProt P21728); experiment: Binding affinity to human D1R
[4] = biological target: 5-hydroxytryptamine receptor 2A (Homo sapiens, UniProt P28223); experiment: Displacement of [3H]-ketanserin from human 5-HT2AR expressed in CHO cells; assay type: cell-based
[5] = biological target: T3, D(4) dopamine receptor (Homo sapiens, UniProt P21917); experiment: Binding affinity to human D4R
T3 sequence (P21917 whole entry): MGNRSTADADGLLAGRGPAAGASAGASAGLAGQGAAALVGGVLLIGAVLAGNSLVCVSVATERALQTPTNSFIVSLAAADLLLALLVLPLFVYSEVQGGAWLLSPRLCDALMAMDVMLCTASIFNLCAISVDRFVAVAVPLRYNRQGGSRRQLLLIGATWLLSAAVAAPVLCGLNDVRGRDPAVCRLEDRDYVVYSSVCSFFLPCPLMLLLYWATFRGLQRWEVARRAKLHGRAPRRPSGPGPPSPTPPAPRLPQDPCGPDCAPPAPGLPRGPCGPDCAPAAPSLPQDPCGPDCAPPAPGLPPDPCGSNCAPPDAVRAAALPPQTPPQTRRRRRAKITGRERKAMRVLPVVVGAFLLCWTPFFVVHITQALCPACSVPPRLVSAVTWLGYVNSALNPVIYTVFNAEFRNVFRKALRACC

[6] = biological target: T4, 5-hydroxytryptamine receptor 2C (Homo sapiens, UniProt P28335); experiment: Binding affinity to human 5-HT2C
T4 sequence (P28335 whole entry): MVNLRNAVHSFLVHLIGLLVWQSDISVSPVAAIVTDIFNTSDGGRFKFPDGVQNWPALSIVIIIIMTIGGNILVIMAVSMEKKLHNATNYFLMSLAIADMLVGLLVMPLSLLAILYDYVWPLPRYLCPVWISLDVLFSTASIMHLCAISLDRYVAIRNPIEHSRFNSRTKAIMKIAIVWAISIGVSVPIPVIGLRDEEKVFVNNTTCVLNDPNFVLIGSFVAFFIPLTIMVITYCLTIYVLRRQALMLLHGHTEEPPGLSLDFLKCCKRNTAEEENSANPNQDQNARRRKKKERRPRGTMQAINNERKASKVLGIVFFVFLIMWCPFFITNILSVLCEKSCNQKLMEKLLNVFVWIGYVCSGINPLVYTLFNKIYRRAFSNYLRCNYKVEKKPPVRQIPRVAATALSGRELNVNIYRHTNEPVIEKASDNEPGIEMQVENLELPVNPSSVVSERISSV

[7] = biological target: T5, 5-hydroxytryptamine receptor 1A (Homo sapiens, UniProt P08908); experiment: Displacement of [3H]-[…] from human 5-HT1AR expressed in human HEK293 cells; assay type: cell-based
T5 sequence (P08908 whole entry): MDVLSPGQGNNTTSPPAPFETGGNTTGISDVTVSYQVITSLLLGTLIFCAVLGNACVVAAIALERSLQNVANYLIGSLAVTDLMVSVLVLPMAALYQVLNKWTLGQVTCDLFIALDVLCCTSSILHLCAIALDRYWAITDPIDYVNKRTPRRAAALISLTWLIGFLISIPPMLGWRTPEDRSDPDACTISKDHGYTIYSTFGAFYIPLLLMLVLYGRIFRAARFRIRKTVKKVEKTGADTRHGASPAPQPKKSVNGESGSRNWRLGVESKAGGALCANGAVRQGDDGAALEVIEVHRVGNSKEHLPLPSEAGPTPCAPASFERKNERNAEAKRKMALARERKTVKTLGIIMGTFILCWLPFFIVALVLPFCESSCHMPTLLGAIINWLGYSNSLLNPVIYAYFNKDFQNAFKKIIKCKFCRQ

[8] = biological target: D(2) dopamine receptor (Rattus norvegicus, UniProt P61169); experiment: Displacement of [3H]-spiperone from DRD2 in rat striatum incubated for 45 mins by liquid scintillation counting; assay type: tissue-based
Sequence of D(2) dopamine receptor (P61169 whole entry): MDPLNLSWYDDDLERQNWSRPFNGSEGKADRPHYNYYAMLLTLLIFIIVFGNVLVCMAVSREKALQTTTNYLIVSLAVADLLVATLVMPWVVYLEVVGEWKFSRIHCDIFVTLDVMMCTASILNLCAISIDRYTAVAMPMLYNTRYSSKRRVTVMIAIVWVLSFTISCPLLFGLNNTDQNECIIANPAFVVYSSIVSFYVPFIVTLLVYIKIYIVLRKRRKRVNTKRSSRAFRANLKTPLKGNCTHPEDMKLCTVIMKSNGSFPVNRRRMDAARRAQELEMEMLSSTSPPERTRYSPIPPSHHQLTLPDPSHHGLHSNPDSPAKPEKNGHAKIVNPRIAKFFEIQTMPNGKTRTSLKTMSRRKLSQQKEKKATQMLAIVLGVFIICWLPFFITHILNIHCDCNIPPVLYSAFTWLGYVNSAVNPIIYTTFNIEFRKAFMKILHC

Sequence of D(1A) dopamine receptor (P21728 whole entry): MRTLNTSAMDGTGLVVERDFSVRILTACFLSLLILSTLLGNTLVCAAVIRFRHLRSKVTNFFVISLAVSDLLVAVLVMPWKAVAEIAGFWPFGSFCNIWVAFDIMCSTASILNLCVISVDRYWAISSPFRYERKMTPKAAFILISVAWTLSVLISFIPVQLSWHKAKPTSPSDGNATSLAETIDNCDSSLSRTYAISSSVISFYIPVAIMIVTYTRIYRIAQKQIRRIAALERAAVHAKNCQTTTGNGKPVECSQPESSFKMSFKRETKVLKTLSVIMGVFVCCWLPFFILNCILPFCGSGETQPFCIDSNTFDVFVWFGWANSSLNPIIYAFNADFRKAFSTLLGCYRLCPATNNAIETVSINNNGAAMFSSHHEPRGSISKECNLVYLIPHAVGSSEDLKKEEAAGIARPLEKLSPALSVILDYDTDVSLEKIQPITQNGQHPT
Sequence of 5-hydroxytryptamine receptor 2A (P28223 whole entry): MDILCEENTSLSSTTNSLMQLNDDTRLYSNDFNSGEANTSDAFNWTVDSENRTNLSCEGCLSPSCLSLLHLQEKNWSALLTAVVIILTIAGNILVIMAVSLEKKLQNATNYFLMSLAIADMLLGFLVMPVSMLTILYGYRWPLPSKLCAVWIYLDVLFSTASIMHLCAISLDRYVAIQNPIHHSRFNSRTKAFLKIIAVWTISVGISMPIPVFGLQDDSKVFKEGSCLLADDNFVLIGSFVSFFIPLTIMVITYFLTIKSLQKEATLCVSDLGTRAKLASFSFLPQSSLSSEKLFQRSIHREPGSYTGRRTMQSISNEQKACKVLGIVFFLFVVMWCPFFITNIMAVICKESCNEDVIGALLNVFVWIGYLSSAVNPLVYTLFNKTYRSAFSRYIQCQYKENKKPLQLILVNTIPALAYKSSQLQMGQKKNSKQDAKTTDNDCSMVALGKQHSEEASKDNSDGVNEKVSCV

Ki [1]: 1500 nM
Ki [2]: 100 nM
Ki [3]: > 5000 nM
Ki [4]: 2250 nM
Ki [5]: > 5000 nM
Ki [6]: > 5000 nM
Ki [7]: 100 nM
Ki [8]: 2250 nM
SMILES: O=C1c2ccccc2S(=O)(=O)N1CCCCN1CCN(c2cccc(C(F)(F)F)c2)CC1
